For 20 compounds, IC50 results are on record in patent publication US9604996B2 (Bayer Pharma Aktiengesellschaft, priority 2013, dated 2017).

By IC50 is commonly meant the concentration needed to halve the response being measured.

Assay [1] concerns the target T1, human adenosine A2b receptor (Homo sapiens, UniProt P29275).
T1 construct: expressed in transfected cells; host or cells: CHO-K1 (Chinese Hamster Ovary) with CRE-luciferase reporter
T1 sequence (P29275 1-332): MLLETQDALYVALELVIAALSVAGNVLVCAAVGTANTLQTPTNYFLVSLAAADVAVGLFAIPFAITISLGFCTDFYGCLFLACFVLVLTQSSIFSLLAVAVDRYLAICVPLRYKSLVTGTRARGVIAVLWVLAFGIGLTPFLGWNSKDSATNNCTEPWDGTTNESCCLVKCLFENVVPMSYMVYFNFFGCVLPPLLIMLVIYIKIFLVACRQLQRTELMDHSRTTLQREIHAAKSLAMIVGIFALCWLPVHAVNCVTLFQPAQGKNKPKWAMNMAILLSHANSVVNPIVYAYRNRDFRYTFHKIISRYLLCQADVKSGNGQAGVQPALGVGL
Nature of the assay: Cellular reporter gene (CRE-luciferase) A2b receptor antagonist assay in recombinant CHO-K1 cells stimulated with NECA. The class given is cell-based. The note with it: recombinant CHO-K1 cell line, co-incubation with EC50 concentration of NECA, 3 hours, in some cases means, rounded to two significant digits. The essentials:
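CHO-K1 cells expressing human A2b receptor with a CRE-driven firefly luciferase reporter, co-incubated with test compound and NECA at its same-day EC50 concentration. Luminescence read 3 hours after NECA addition.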
Background: Reporter assays use an easily measured gene product as a stand-in for the process of interest.

Assay [2] concerns IL-6 release by human fibroblast cell line LL29. Nature of the assay: NECA-induced IL-6 release by LL29 fibroblasts (ELISA). The class given is cell-based. To be noted: NECA 10 μM, 24 hours incubation, IL-6 ELISA of supernatant, in some cases means, rounded to two significant digits. How it is done: B-2. Measurement of NECA-Induced IL-6 Release by LL29 Fibroblasts
Stimulation of fibroblasts with adenosine or the adenosine analog 5′-N-ethylcarboxamidoadenosine (NECA) leads to release of the pro-inflammatory and pro-fibrotic cytokine IL-6 which can be prevented by inhibition of the A2b receptor.
Accordingly, confluent cells of the human fibroblast cell line LL29 were treated with the test substances and stimulated with NECA (10 μM). After an incubation time of 24 hours, the cell supernatant is removed and human IL-6 in the cell supernatant is determined by ELISA (Quantikine® IL6 ELISA, R&D Systems, Minneapolis, USA).
For orientation: ELISA stands for enzyme-linked immunosorbent assay.

As to `Cc1c(C(=O)N2CCC(O)CC2)sc2c1c(=O)n(CCc1ccccc1)c(=O)n2CCC(F)(F)F` [Example 1, 6-[(4-Hydroxypiperidin-1-yl)carbonyl]-5-methyl-3-(2-phenylethyl)-1-(3,3,3-trifluoropropyl)thieno[2,3-d]pyrimidine-2,4(1H,3H)-dione], the values for the IC50 in assay [1] and in assay [2] were 37 nM and 59 nM, respectively.
For `Cc1c(C(=O)N2CCC(O)CC2)sc2c1c(=O)n(CCc1ccccc1)c(=O)n2CCC=C(F)F` [Example 2, 1-(4,4-Difluorobut-3-en-1-yl)-6-[(4-hydroxypiperidin-1-yl)carbonyl]-5-methyl-3-(2-phenylethyl)thieno[2,3-d]pyrimidine-2,4(1H,3H)-dione] the same measures were 44 nM and 53 nM.
On the same counts, the results for `Cc1c(C(=O)N2CCC(O)CC2)sc2c1c(=O)n(CCc1ccccc1F)c(=O)n2CCC(F)(F)F` [Example 4, 3-[2-(2-Fluorophenyl)ethyl]-6-[(4-hydroxypiperidin-1-yl)carbonyl]-5-methyl-1-(3,3,3-trifluoropropyl)thieno[2,3-d]pyrimidine-2,4(1H,3H)-dione] are 25 nM and 39 nM.
On the same counts, the results for `Cc1c(C(=O)N2CCC(O)CC2)sc2c1c(=O)n(CCc1ccccc1Cl)c(=O)n2CCC(F)(F)F` [Example 6, 3-[2-(2-Chlorophenyl)ethyl]-6-[(4-hydroxypiperidin-1-yl)carbonyl]-5-methyl-1-(3,3,3-trifluoropropyl)thieno [2,3-d]pyrimidine-2,4(1H,3H)-dione] are 13 nM and 27 nM.
Regarding `Cc1ccccc1CCn1c(=O)c2c(C)c(C(=O)N3CCC(O)CC3)sc2n(CCC(F)(F)F)c1=O` [Example 8, 6-[(4-Hydroxypiperidin-1-yl)carbonyl]-5-methyl-3-[2-(2-methylphenyl)ethyl]-1-(3,3,3-trifluoropropyl)thieno[2,3-d]pyrimidine-2,4(1H,3H)-dione], the IC50 in assay [1] was 20 nM; in assay [2] it was 34 nM.
`Cc1c(C(=O)N2CCC(O)CC2)sc2c1c(=O)n(CCc1cccnc1)c(=O)n2CCC=C(F)F` [Example 16, 1-(4,4-Difluorobut-3-en-1-yl)-6-[(4-hydroxypiperidin-1-yl)carbonyl]-5-methyl-3-[2-(pyridin-3-yl)ethyl]thieno[2,3-d]pyrimidine-2,4(1H,3H)-dione]: the IC50 is 38 nM in assay [1] and 89 nM in assay [2].
Regarding `CCn1c(=O)c2c(C)c(C(=O)N3CCC(O)CC3)sc2n(CCC(F)(F)F)c1=O` [Example 18, 3-Ethyl-6-[(4-hydroxypiperidin-1-yl)carbonyl]-5-methyl-1-(3,3,3-trifluoropropyl)thieno[2,3-d]pyrimidine-2,4(1H,3H)-dione], the IC50 in assay [1] came out at 57 nM; in assay [2], 170 nM.
For `CCn1c(=O)c2c(C)c(C(=O)N3CCC(C)(O)CC3)sc2n(CCC(F)(F)F)c1=O` [Example 21, 3-Ethyl-6-[(4-hydroxy-4-methylpiperidin-1-yl)carbonyl]-5-methyl-1-(3,3,3-trifluoropropyl)thieno [2,3-d]pyrimidine-2,4(1H,3H)-dione] the same measures were 25 nM and 69 nM.
In the case of `O=C(c1sc2c(c1C(F)(F)F)c(=O)n(CCc1ccccc1)c(=O)n2CCC(F)(F)F)N1CCC(O)CC1` [Example 24, 6-[(4-Hydroxypiperidin-1-yl)carbonyl]-3-(2-phenylethyl)-5-(trifluoromethyl)-1-(3,3,3-trifluoropropyl)thieno[2,3-d]pyrimidine-2,4(1H,3H)-dione], the IC50 in assay [1] was found to be 13 nM; in assay [2], 10 nM.
For `Cc1c(C(=O)N2CCNC(=O)C2)sc2c1c(=O)n(CCc1ccccc1)c(=O)n2CCC(F)(F)F` [Example 26, 5-Methyl-6-[(3-oxopiperazin-1-yl)carbonyl]-3-(2-phenylethyl)-1-(3,3,3-trifluoropropyl)thieno[2,3-d]pyrimidine-2,4(1H,3H)-dione] the same measures were 17 nM and 53 nM.
For `Cc1c(C(=O)N2CCNC(=O)C2)sc2c1c(=O)n(CCc1ccccc1F)c(=O)n2CCC(F)(F)F` [Example 29, 3-[2-(2-Fluorophenyl)ethyl]-5-methyl-6-[(3-oxopiperazin-1-yl)carbonyl]-1-(3,3,3-trifluoropropyl)thieno[2,3-d]pyrimidine-2,4(1H,3H)-dione] the same measures were 21 nM and 23 nM.
Take `Cc1c(C(=O)N2CCNC(=O)C2)sc2c1c(=O)n(CCc1ccccc1Cl)c(=O)n2CCC(F)(F)F` [Example 31, 3-[2-(2-Chlorophenyl)ethyl]-5-methyl-6-[(3-oxopiperazin-1-yl)carbonyl]-1-(3,3,3-trifluoropropyl)thieno[2,3-d]pyrimidine-2,4(1H,3H)-dione]: the IC50 in assay [1] and in assay [2] was 16 nM each time.
In the case of `Cc1c(C(=O)N2CCNC(=O)C2)sc2c1c(=O)n(CCc1ccccc1Cl)c(=O)n2CCC=C(F)F` [Example 32, 3-[2-(2-Chlorophenyl)ethyl]-1-(4,4-difluorobut-3-en-1-yl)-5-methyl-6-[(3-oxopiperazin-1-yl)carbonyl]thieno[2,3-d]pyrimidine-2,4(1H,3H)-dione], the IC50 in assay [1] was 110 nM; in assay [2], 230 nM.
For `Cc1c(C(=O)N2CCNC(=O)C2)sc2c1c(=O)n(CCc1cccnc1)c(=O)n2CCC(F)(F)F` [Example 33, 5-Methyl-6-[(3-oxopiperazin-1-yl)carbonyl]-3-[2-(pyridin-3-yl)ethyl]-1-(3,3,3-trifluoropropyl)thieno[2,3-d]pyrimidine-2,4(1H,3H)-dione] the same measures were 67 nM and 140 nM.
As to `CCn1c(=O)c2c(C)c(C(=O)N3CCNC(=O)C3)sc2n(CCC(F)(F)F)c1=O` [Example 35, 3-Ethyl-5-methyl-6-[(3-oxopiperazin-1-yl)carbonyl]-1-(3,3,3-trifluoropropyl)thieno[2,3-d]pyrimidine-2,4(1H,3H)-dione], the figures for the IC50 in assay [1] and in assay [2] were 120 nM and 250 nM, respectively.
For `O=C1CN(C(=O)c2sc3c(c2C(F)(F)F)c(=O)n(CCc2ccccc2)c(=O)n3CCC(F)(F)F)CCN1` [Example 41, 6-[(3-Oxopiperazin-1-yl)carbonyl]-3-(2-phenylethyl)-5-(trifluoromethyl)-1-(3,3,3-trifluoropropyl)thieno[2,3-d]pyrimidine-2,4(1H,3H)-dione] the same measures were 26 nM and 29 nM.
For `Cc1c(C(=O)N2CCC(O)CC2)sc2c1c(=O)n(CCc1ccncc1)c(=O)n2CCC(F)(F)F` [Example 54, 6-[(4-Hydroxypiperidin-1-yl)carbonyl]-5-methyl-3-[2-(pyridin-4-yl)ethyl]-1-(3,3,3-trifluoropropyl)thieno[2,3-d]pyrimidine-2,4(1H,3H)-dione] the same measures were 76 nM and 330 nM.
Take `CCn1c(=O)c2c(C)c(C(=O)N3CCC(O)(CO)CC3)sc2n(CCC(F)(F)F)c1=O` [Example 74, 3-Ethyl-6-{[4-hydroxy-4-(hydroxymethyl)piperidin-1-yl]carbonyl}-5-methyl-1-(3,3,3-trifluoropropyl)thieno[2,3-d]pyrimidine-2,4(1H,3H)-dione]: the IC50 was determined as 110 nM in assay [1] and 250 nM in assay [2].
For `CCc1c(C(=O)N2CCC(C)(O)CC2)sc2c1c(=O)n(CC)c(=O)n2CCC(F)(F)F` [Example 88, 3,5-Diethyl-6-[(4-hydroxy-4-methylpiperidin-1-yl)carbonyl]-1-(3,3,3-trifluoropropyl)thieno[2,3-d]pyrimidine-2,4(1H,3H)-dione] the same measures were 8.7 nM and 9 nM.
For the compound `CCc1c(C(=O)N2CCC(O)(CO)CC2)sc2c1c(=O)n(CC)c(=O)n2CCC(F)(F)F` [Example 89, 3,5-Diethyl-6-{[4-hydroxy-4-(hydroxymethyl)piperidin-1-yl]carbonyl}-1-(3,3,3-trifluoropropyl)thieno[2,3-d]pyrimidine-2,4(1H,3H)-dione], the values for the IC50 in assay [1] and in assay [2] were 35 nM and 48 nM, respectively.
